Here are results for one molecule from patent US20110182946A1, “Formation of Nanostructured Particles of Poorly Water Soluble Drugs and Recovery by Mechanical Techniques” (BOARD OF REGENTS, THE UNIVERSITY OF TEXAS SYSTEM, priority 2008, published 2011).

≈ marks a conversion by molar mass, not a printed value.

For data set [1] the following is noted: pH 6.8 buffer without addition of 0.17% SDS; cited from earlier work.
Data set [2] in a line: Equilibrium solubility of crystalline ITZ. Type of data set: physicochemical. The settings on record: thermodynamic from solid.

Regarding `CCC(C)n1ncn(-c2ccc(N3CCN(c4ccc(OCC5COC(Cn6cncn6)(c6ccc(Cl)cc6Cl)O5)cc4)CC3)cc2)c1=O` (stereo not drawn) [ITZ, itraconazole], in data set [1], the equilibrium solubility entry was “about 1 ng/mL”. The molecule further displayed a solubility (thermodynamic) in data set [2] (acidic media, pH 1.2, simulated gastric fluid) of 4.4 µg/mL (≈ 6.24 µM). The solubility at 18 h in data set [2] (pH 6.8 phosphate buffer with 0.17% SDS, aqueous with cosolvent or surfactant or cyclodextrin, pH 6.8 media with 0.17% SDS, 37.2° C.) stood at 14 µg/mL (≈ 19.8 µM).
